Laboratory results: publication PMC11062894, “Protein-based bandpass filters for controlling cellular signaling with chemical inputs” (Nature Chemical Biology, 2023)
Where “and” joins values, the source holds several entries; their conditions need not be identical. Identical values can stand only once.

Tested on: GEMS receptors with CBPA11 (BclXL–LD3 and BclXLhigh variants), STAT3-driven SEAP in HEK293T cells
Assay: GEMS SEAP reporter assay, CBPA11 (BclXLhigh, LD3-v and BclXL-v variants) with A-1155463
Assay type: cell-based
Parameters: key to Raw data (SEAP) / SEAP, replicate values / Raw data of Figure 5b / Raw data Figure 5e / Raw data of Independent repeat of CBPA11-v1 vs CBPA11-v1-LD3v3 / Raw data of Independent repeat of CBPA11-v3 vs CBPA11-v3-LD3v3 / Raw data of Figure 5b, CBPA11-v1-LD3v3 (SEAP reporter raw value, single replicate) / Raw data of Figure 5b, CBPA11-v1 (SEAP reporter raw value, single replicate): SEAP activity in U/L in culture supernatant
Description: To rationally design a CBP responding to a chemical input, we used BclXL as the druglow receptor, LD3 as the designed binder and a designed BclXL variant as the drughigh receptor (referred to as BclXLhigh) to construct a CBP responsive to BclXL inhibitors (Fig. 4a). To design BclXLhigh, we used a multistate design computational protocol described elsewhere[26] […] Thus, BclXLhigh-v(1–3) were chosen as the functional drughigh receptors, resulting in three A-1155463-controlled CBPs (referred to as CBPA11-v(1–3)) (Fig. 4c–e).
HEK293T cells were seeded in a 96-well plate 24 h before transfection. The transfection mix in each well consisted of 3 ng of constitutive human CMV promoter driven mammalian STAT3 expression vector (PhCMV-STAT3-pA), 30 ng of STAT3-induced reporter expression (OStat3-PhCMVmin-SEAP-pA) and 50 ng of expression vectors for each GEMS receptor chain (PSV40-IgK-(drughigh receptor)-EpoRm-IL-6RBm-pA and PSV40-IgK-(druglow receptor-GGGGSX3-LD3)-EpoRm-IL-6RBm-pA). For the specific drughigh receptor and druglow receptor used in the different cellular assays, they are indicated as wild type or with mutations. Then, plasmid DNA was mixed with 50 μl opti-MEM (Thermo Fisher) and 600 ng of polyethyleneimine (Polysciences, catalog no. 24765-1). For drug treatment experiments, drugs were added 12 h post-transfection and incubated with cells for 24 h before the SEAP reporter detection assay.
SEAP activity (U l^−1) in cell culture supernatants was quantified by kinetic measurements at 405 nm (1 minute per measurement for 30 cycles) of absorbance increase due to phosphatase-mediated hydrolysis of para-nitrophenyl phosphate (pNPP).
Binding affinities of SPR drug competition assays were calculated using three-parameter nonlinear regression in GraphPad Prism (v.8.3.0). Representative data of cell assays are presented as individual values and mean values (bars). n = 3 refers to biological replicates. All IC50 or EC50 values of cell assays reported were calculated using four-parameter nonlinear regression ± s.d. Bandpass features of cutoff concentrations and Bandwidth90% were estimated based on the curve fitted using bell-shaped curve nonlinear regression in GraphPad Prism (v.8.3.0). […]
Supplementary Figure 4: Design, screening and validation of BclXLhigh variants. a) Screening of BclXLhigh variants in the GEMS platform. […]
Dissociation constant measurement of BclXLhigh-v(1-3) and LD3. Equilibrium curves are fitted using […]
BclXLhigh-v1 (purple), BclXLhigh-v2 (blue), […]
a) Bcl2high-based bandpass filter designs were developed and to respond to different concentrations of […]
corresponding inhibitor. c) Screening of Bcl2high-based bandpass filter variants in the GEMS platform.
The designed binder LD3 was fused to the druglow-receptor (PSV40-IgK-Bcl2-LD3-EpoRm-IL-6RBm-pA) in one EpoR chain and Bcl2high variants with the insensitive Bcl2 (iBcl2) as control in the other EpoR chain (PSV40-IgK-Bcl2high-EpoRm-IL-6RBm-pA). HEK293T cells were transfected with indicated […]
the mean of six biological replicates ± s.d., overlaid with a scatter dot plot of the original data points.
(1 picture or pasted object on this page, not shown here)
Supplementary Figure 6: Binding affinities and drug resistances of Bcl2high-v(2,4,5) assessed by […]
a) Measurement of dissociation constants for Bcl2high-v(2,4,5) and LD3 interactions. Equilibrium curves […]
Bcl2high-v(2,4,5) measured by SPR. 5 μM of Bcl2 or indicated variants were mixed with 10 μM of […]
Bcl2high-v2 (red), Bcl2high-v4
Supplementary Figure 7: Screening of LD3 variants in CBPA11-v(1-3) and raw data of CBPA11-v(1,3) with LD3-v3 variant. a-c) Screening of LD3 and LD3-v(1-3) variants in complex with BclXL for more sensitive CBPA11-v1 (a), CBPA11-v2 (b), CBPA11-v3 (c) in the GEMS platform. The LD3 variants replaced the role of LD3 (PSV40-IgK-BclXL-LD3-v(1-3)-EpoRm-IL-6RBm-pA) in one EpoR chain and BclXLhigh-v(1-3) in the other EpoR chain (PSV40-IgK-BclXLhigh-V(1-3)-EpoRm-IL-6RBm-pA). HEK293T cells were transfected with […]

[1] = CBPA11-v1-LD3v3, A-1155463 1 nM
[2] = CBPA11-v1-LD3v3, A-1155463 3.18 nM
[3] = CBPA11-v1-LD3v3, A-1155463 10 nM
[4] = CBPA11-v1-LD3v3, A-1155463 31.8 nM
[5] = CBPA11-v1-LD3v3, A-1155463 100 nM
[6] = CBPA11-v1-LD3v3, A-1155463 318 nM
[7] = CBPA11-v1-LD3v3, A-1155463 1000 nM
[8] = CBPA11-v1-LD3v3, A-1155463 3180 nM
[9] = CBPA11-v1-LD3v3, A-1155463 10000 nM

## CN(C)CC#Cc1ccc(OCCCc2sc(N3CCc4cccc(C(=O)Nc5nc6ccccc6s5)c4C3)nc2C(=O)O)c(F)c1 [A-1155463]
[1]
  Normalized data of Figure 5b: 12.3584 and 11.9384 and 10.5903
  Raw data of Figure 5b: 17.44 and 15.4815 and 15.2319
  Raw data of Independent repeat of CBPA11-v1 vs CBPA11-v1-LD3v3: 31.801 and 28.5095 and 29.309
CBPA11-v1-LD3v3, A-1155463 3.16 nM
  Raw data of Independent repeat of CBPA11-v1 vs CBPA11-v1-LD3v3: 34.9091 and 28.121 and 21.957
[2]
  Normalized data of Figure 5b: 13.5394 and 12.5226 and 10.9319
  Raw data of Figure 5b: 19.1065 and 16.239 and 15.7232
[3]
  Normalized data of Figure 5b: 25.1514 and 28.7722 and 29.2973
  Raw data of Figure 5b: 35.4931 and 37.3111 and 42.1378
  Raw data of Independent repeat of CBPA11-v1 vs CBPA11-v1-LD3v3: 179.972 and 131.844 and 140.391
CBPA11-v1-LD3v3, A-1155463 31.6 nM
  Raw data of Independent repeat of CBPA11-v1 vs CBPA11-v1-LD3v3: 226.429 and 187.26 and 191.409
[4]
  Normalized data of Figure 5b: 78.9386 and 88.4215 and 71.2191
  Raw data of Figure 5b: 111.396 and 114.663 and 102.433
[5]
  Normalized data of Figure 5b: 100
  Raw data of Figure 5b: 141.118 and 129.678 and 143.828
  Raw data of Independent repeat of CBPA11-v1 vs CBPA11-v1-LD3v3: 335.207 and 287.921 and 227.786
CBPA11-v1-LD3v3, A-1155463 316 nM
  Raw data of Independent repeat of CBPA11-v1 vs CBPA11-v1-LD3v3: 270.923 and 196.943 and 173.263
[6]
  Normalized data of Figure 5b: 62.5942 and 62.3431 and 56.6992
  Raw data of Figure 5b: 88.3315 and 80.8452 and 81.5497
[7]
  Normalized data of Figure 5b: 29.9151 and 30.048 and 29.0586
  Raw data of Figure 5b: 42.2154 and 38.9656 and 41.7945
  Raw data of Independent repeat of CBPA11-v1 vs CBPA11-v1-LD3v3: 123.233 and 79.9582 and 97.1187
CBPA11-v1-LD3v3, A-1155463 3160 nM
  Raw data of Independent repeat of CBPA11-v1 vs CBPA11-v1-LD3v3: 45.1078 and 32.2032 and 26.5323
[8]
  Normalized data of Figure 5b: 11.3098 and 14.9107 and 12.4987
  Raw data of Figure 5b: 15.9601 and 19.3359 and 17.9766
[9]
  Normalized data of Figure 5b: 8.9981 and 9.291 and 5.288
  Raw data of Figure 5b: 12.6979 and 12.0483 and 7.606
  Raw data of Independent repeat of CBPA11-v1 vs CBPA11-v1-LD3v3: 23.0011 and 17.3094 and 15.2043
CBPA11-v3, A-1155463 0.01 nM
  Raw data of Independent repeat of CBPA11-v3 vs CBPA11-v3-LD3v3: 26.5862 and 23.5891 and 24.9373
CBPA11-v3, A-1155463 1 nM
  Normalized data Figure 5e: 14.7288 and 13.7384 and 12.9495
  Normalized data of Figure 5b: 2.438 and 2.3416 and 2.8403
  Raw data of Figure 5b: 13.0926 and 12.3286 and 14.9355
  Raw data of Independent repeat of CBPA11-v3 vs CBPA11-v3-LD3v3: 77.8998 and 72.2772 and 68.2722
CBPA11-v3, A-1155463 3.16 nM
  Raw data of Independent repeat of CBPA11-v3 vs CBPA11-v3-LD3v3: 101.26 and 74.5174 and 69.017
CBPA11-v3, A-1155463 3.18 nM
  Normalized data Figure 5e: 19.1455 and 14.1642 and 13.0908
CBPA11-v3, A-1155463 10 nM
  Normalized data Figure 5e: 52.8574 and 45.1451 and 43.5321
  Normalized data of Figure 5b: 22.9212 and 24.7467 and 27.0042
  Raw data of Figure 5b: 123.11 and 130.292 and 142
  Raw data of Independent repeat of CBPA11-v3 vs CBPA11-v3-LD3v3: 279.56 and 237.506 and 229.509
CBPA11-v3, A-1155463 31.6 nM
  Raw data of Independent repeat of CBPA11-v3 vs CBPA11-v3-LD3v3: 420.603 and 418.534 and 369.593
CBPA11-v3, A-1155463 31.8 nM
  Normalized data Figure 5e: 79.525 and 79.5547 and 70.1024
  Normalized data of Figure 5b: 52.5804 and 56.6221 and 62.0483
  Raw data of Figure 5b: 282.41 and 298.117 and 326.277
CBPA11-v3, A-1155463 100 nM
  Normalized data Figure 5e: 93.7695 and 93.9386 and 100
  Normalized data of Figure 5b: 84.9271 and 84.8554 and 85.7543
  Raw data of Figure 5b: 456.144 and 446.765 and 450.933
CBPA11-v3, A-1155463 318 nM
  Normalized data Figure 5e: 100 and 99.7629
  Normalized data of Figure 5b: 100
  Raw data of Figure 5b: 537.1 and 526.502 and 525.843
